According to article PMC12157126, “Saturation kinetics and specificity of transporters for L-arginine and asymmetric dimethylarginine (ADMA) at the blood-brain and blood-CSF barriers” (PLOS One, 2025):
Where “and” joins values, the source holds several entries; their conditions need not be identical. Equal values may be shown once. Read-outs that look alike come from different tables or passages of the source. Each block holds one compound with its values, some of them ahead of it.

Legend:
[1] = test system: blood-brain and blood-CSF barriers; test: Self-inhibition experiments: [3H]-ADMA uptake with 0.5-500 μM unlabelled ADMA and kinetic constants (Km, Vmax, Kd); type: in vivo, adult male BALB/c mice; parameters: [3H] ADMA, hippocampus / [3H] ADMA, thalamus: unit not given beside the values
NO production = test system: NO production; parameters: method as in PMID 17082183; settings: cited from earlier work
CAT-1 = CAT-1 transports ADMA; cited from earlier work
[2] = test system: blood-brain and blood-CSF barriers; settings: male, BALB/c, mouse, in vivo, 10 min
Procedure: (§1) The in situ brain/choroid plexus perfusion method was performed as previously described and will only be briefly detailed here. […] At the end of the perfusion period a CSF sample was taken from the cisterna magna, the animal was decapitated, the brain removed and samples taken under a Leica S4E L2 stereomicroscope (Leica; Buckinghamshire, UK). […] The circumventricular organs (CVOs) including the choroid plexus, pituitary gland and pineal gland were also sampled. Brain samples were also taken for capillary depletion analysis.
It is specifically used in brain samples (including brain homogenate and brain supernatant) to measure the vascular space at all perfusion time points. At later time points, in particular, it may also represent the capillary endothelial cell volume and/ or diffusion across the brain capillary wall and into the brain interstitial fluid. In the pellet samples it will measure extracellular fluid and may also represent capillary endothelial cell volume. […] It may also represent any accumulation into the cells of the choroid plexus.

[3] = In situ brain/choroid plexus perfusion with capillary depletion: CNS uptake of [3H]-arginine in absence and presence of transporter inhibitors; type: in vivo, adult male BALB/c mice; parameters: Difference (Arginine - Sucrose): unit not given here; settings: male, BALB/c, mouse, 10 mins, 5ml/min, per mouse
Procedure: as §1
(§2) Both the physiological capillary depletion buffer and dextran solution were maintained at 4 °C to halt any cell metabolism and transport processes, and to reduce any cellular or protein damage due to heat generated from the homogenisation process. The whole brain homogenate was then taken for dextran density centrifugation (5,400 x g) and 4 °C to produce an endothelial cell-enriched pellet and supernatant containing brain parenchyma.
(§3) The transporter proteins these inhibitors target are listed in S1 Table in S1 File.
(§4) % change=RTissue−RInhibition /RTissue× 100 (2)

[4] = test system: blood-brain and blood-CSF barriers; test: as above; type: in vivo, adult male BALB/c mice; parameters: Difference (Arginine - Sucrose): unit not given here; settings: for uptake of [3H]-arginine: [14C]-sucrose corrected; for Arginine, tissue/plasma ratio / Difference (Arginine - Sucrose): 10 mins, 5ml/min, per mouse
Procedure: as §1, §2, §3, §4

[5] = CONTROL, 10 mins, 5ml/min, single mice

Compound: CN(C)C(N)=NCCC[C@H](N)C(=O)O.Cl.Cl [unlabelled ADMA, N^G,N^G-dimethylarginine dihydrochloride]
decrease of [3H]-ADMA uptake ([1]; 500 μM unlabelled ADMA, frontal cortex): 79.9%
effect on uptake of [3H]-ADMA (62.5 nM) ([1]; 0.5, 3.0, 10, 100 and 500μM un-labelled ADMA, all brain regions): significantly self-inhibited
Difference ([3H] ADMA minus [14C] Sucrose), hippocampus [1, 5]: 0.1991 and 0.2866 and 0.2044 and 0.2062
Difference ([3H] ADMA minus [14C] Sucrose), hypothalamus [1, 5]: 0.21 and 0.3614 and 0.2746 and 0.3021
Difference ([3H] ADMA minus [14C] Sucrose), occipital cortex [1, 5]: 0.1943 and 0.2753 and 0.1841 and 0.2419 and 0.2303
Difference ([3H] ADMA minus [14C] Sucrose), thalamus [1, 5]: 0.1695 and 0.2656 and 0.1763 and 0.2233 and 0.2154
[3H] ADMA, hippocampus [1, 5]: 0.2134 and 0.305 and 0.2049 and 0.2208 and 0.2239
[3H] ADMA, hypothalamus [1, 5]: 0.2341 and 0.3969 and 0.298 and 0.3627 and 0.4134
[3H] ADMA, occipital cortex [1, 5]: 0.2132 and 0.2962 and 0.2074 and 0.2625 and 0.2565
[3H] ADMA, supernatant [1, 5]: 0.1192 and 0.1611 and 0.1028 and 0.139 and 0.1685
[3H] ADMA, thalamus [1, 5]: 0.1804 and 0.2881 and 0.1916 and 0.2507 and 0.2348
inhibition of NO production (NO production; normal ADMA concentrations within cells): 10%
inhibition of NO production (NO production; plasma ADMA concentrations higher than normal): 70%
Km (CAT-1): 183 ± 21 µM

distribution into capillary endothelial cells, times lower than into choroid plexus [2]: 31.4 times
Compound: OC[C@H]1O[C@@](CO)(O[C@H]2O[C@H](CO)[C@@H](O)[C@H](O)[C@H]2O)[C@@H](O)[C@@H]1O [[^14C]-sucrose, sucrose]

Kp at 10 min ([3]; cerebellum, Arginine, tissue/plasma ratio, cerebellum, + 4mM BCH): 0.607
Kp at 10 min ([3]; cerebellum, Difference (Arginine - Sucrose), cerebellum, + 4mM BCH): 0.575
Kp at 10 min, […] ([3]; cerebellum, with 20 mM L-homoarginine, Arginine, tissue/plasma ratio, cerebellum, + 20mM L-Homoarginine): 0.0312
Kp at 10 min, […] ([3]; choroid plexus, Arginine, tissue/plasma ratio, choroid plexus, + 4mM BCH): 2.01
Kp at 10 min ([3]; choroid plexus, Difference (Arginine - Sucrose), choroid plexus, + 4mM BCH): 1.85
Kp at 10 min ([3]; frontal cortex, Arginine, tissue/plasma ratio, frontal cortex, + 4mM BCH): 0.649
Kp at 10 min ([3]; frontal cortex, Difference (Arginine - Sucrose), frontal cortex, + 4mM BCH): 0.617
Kp at 10 min ([3]; frontal cortex, with L-homoarginine 20 mM in the artificial plasma, Arginine, tissue/plasma ratio, frontal cortex, + 20mM L-Homoarginine): 0.0351
Kp at 10 min ([3]; hippocampus, Arginine, tissue/plasma ratio, hippocampus, + 4mM BCH): 0.477
Kp at 10 min ([3]; hippocampus, Difference (Arginine - Sucrose), hippocampus, + 4mM BCH): 0.457
Kp at 10 min ([3]; occipital cortex, Arginine, tissue/plasma ratio, occipital cortex, + 4mM BCH): 0.631
Kp at 10 min ([3]; occipital cortex, Difference (Arginine - Sucrose), occipital cortex, + 4mM BCH): 0.6
Kp at 10 min, […] ([3]; occipital cortex, with 20 mM L-homoarginine, Arginine, tissue/plasma ratio, occipital cortex, + 20mM L-Homoarginine): 0.0199
Kp at 10 min ([3]; whole brain homogenate, Arginine, tissue/plasma ratio, homogenate, + 4mM BCH): 0.353
Kp at 10 min ([3]; whole brain homogenate, Difference (Arginine - Sucrose), homogenate, + 4mM BCH): 0.332
Kp at 10 min, […] ([3]; with 20 mM L-homoarginine, Arginine, tissue/plasma ratio, supernatant, + 20mM L-Homoarginine): 0.0216
uptake into frontal cortex, times higher than into CSF ([4]; 10 minutes): 5.7 times
uptake into pellet, times lower than into choroid plexus ([4]; 10 minutes): 39.5 times
uptake of [3H]-arginine ([4]; CSF, 10 minutes): 9.53 ± 2.41 ml.100g^-1
uptake of [3H]-arginine ([4]; capillary endothelial cell enriched pellet, 10 minutes): 6.47 ± 1.018 ml.100g^-1
uptake of [3H]-arginine ([4]; choroid plexus, 10 minutes): 255.86 ± 30.41 ml.100g^-1
uptake of [3H]-arginine ([4]; frontal cortex, 10 minutes): 54.65 ± 9.21 ml.100g^-1
Difference (Arginine - Sucrose) ([4]; thalamus): 0.929 and 0.9992 and 0.362 and 0.5168
Compound: N=C(N)NCCC[C@H](N)C(=O)O [[^3H]-arginine, L-arginine]
Arginine, tissue/plasma ratio ([4]; caudate nucleus): 0.6618 and 0.8652 and 0.401 and 0.4938 and 0.3347 and 0.5216
Difference (Arginine - Sucrose) ([4]; caudate nucleus): 0.6456 and 0.7471 and 0.378 and 0.4593 and 0.3101 and 0.4829
Arginine, tissue/plasma ratio ([4]; choroid plexus): 3.243 and 3.765 and 2.2598 and 3.422 and 1.518 and 2.959
Difference (Arginine - Sucrose) ([4]; choroid plexus): 3.028 and 3.467 and 2.014 and 2.791 and 1.394 and 2.658
Arginine, tissue/plasma ratio ([4]; frontal cortex): 0.8204 and 0.8688 and 0.3825 and 0.5285 and 0.3141 and 0.5494
Difference (Arginine - Sucrose) ([4]; frontal cortex): 0.7931 and 0.8428 and 0.3551 and 0.4902 and 0.2926 and 0.505
Arginine, tissue/plasma ratio ([4]; hippocampus): 0.5129 and 0.6918 and 0.3896 and 0.4547 and 0.2706 and 0.4979
Difference (Arginine - Sucrose) ([4]; hippocampus): 0.4962 and 0.6689 and 0.3625 and 0.4201 and 0.2493 and 0.4621
Arginine, tissue/plasma ratio ([4]; hypothalamus): 0.9811 and 1.538 and 0.3381 and 0.6951 and 0.2905 and 0.3696
Difference (Arginine - Sucrose) ([4]; hypothalamus): 0.9489 and 1.477 and 0.3149 and 0.634 and 0.2579 and 0.3397
Arginine, tissue/plasma ratio ([4]; occipital cortex): 0.6317 and 0.7248 and 0.327 and 0.4186 and 0.2687 and 0.5347
Difference (Arginine - Sucrose) ([4]; occipital cortex): 0.6113 and 0.7014 and 0.3051 and 0.3893 and 0.251 and 0.4973
Difference (Arginine - Sucrose) ([4]; pineal gland): 1.49 and 0.1187 and 0.66 and 1.347 and 0.9026 and 0.5878
Arginine, tissue/plasma ratio ([4]; pituitary gland): 3.254 and 2.641 and 1.189 and 1.192 and 1.144 and 2.275
Difference (Arginine - Sucrose) ([4]; pituitary gland): 3.08 and 2.441 and 0.973 and 1.116 and 1.019 and 2.001
Arginine, tissue/plasma ratio ([4]; thalamus): 0.9502 and 1.029 and 0.4051 and 0.5618 and 0.2525 and 0.5368
